Measurements: US8524736B2, “Stereoisomeric compounds and methods for the treatment of gastrointestinal and central nervous system disorders” (Armetheon, Inc., priority 2004, dated 2013)

Legend:
[1] = target: T1, human 5-HT4 receptor (Homo sapiens, UniProt Q13639); test: adenylyl cyclase stimulation in cells stably expressing human 5-HT4 receptor; format: cell-based; settings: negative logarithm of the EC50
T1 construct: expressed in transfected cells

[2] = target: T2, 5-HT4 Receptor (Cavia porcellus, UniProt O70528); test: 5-HT4 Receptor Binding, Guinea Pig Striatum, [3H]GR113808; settings: versus ATI-7500
T2 construct: Guinea Pig Striatum; from tissue; host or cells: guinea pig striatum
T2 sequence (O70528 whole entry): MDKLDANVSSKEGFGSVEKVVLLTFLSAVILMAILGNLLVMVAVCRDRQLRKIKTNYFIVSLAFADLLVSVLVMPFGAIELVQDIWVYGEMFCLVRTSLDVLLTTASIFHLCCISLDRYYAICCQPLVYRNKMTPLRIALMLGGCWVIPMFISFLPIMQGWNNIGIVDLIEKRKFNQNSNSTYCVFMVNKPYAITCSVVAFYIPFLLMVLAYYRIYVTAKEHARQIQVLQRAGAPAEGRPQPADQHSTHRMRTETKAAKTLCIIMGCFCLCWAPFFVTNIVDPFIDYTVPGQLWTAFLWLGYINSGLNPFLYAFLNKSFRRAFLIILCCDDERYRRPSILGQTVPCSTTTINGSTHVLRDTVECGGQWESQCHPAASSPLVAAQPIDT

[3] = test system: fed dogs; test: gastric emptying in fed conscious dogs (time of MMC return); format: in vivo, dog; settings: IV infusion over 20 minutes before a solid meal; FIG. 2
[4] = test system: isolated, perfused guinea pig hearts
[5] = metabolism by esterases in human plasma
[6] = test system: fasted, conscious dogs; test: gastric, small intestinal and colonic motor activity in fasted, conscious dogs; settings: for prokinetic effects in the dog gut: IV and PO; for effect on migrating motor complex (MMC) characteristics: antrum, proximal, mid and distal small intestine
[7] = target: CYP450 2D6 (Homo sapiens, UniProt P10635); settings: recombinant enzyme
CYP450 2D6, sequence (P10635 whole entry): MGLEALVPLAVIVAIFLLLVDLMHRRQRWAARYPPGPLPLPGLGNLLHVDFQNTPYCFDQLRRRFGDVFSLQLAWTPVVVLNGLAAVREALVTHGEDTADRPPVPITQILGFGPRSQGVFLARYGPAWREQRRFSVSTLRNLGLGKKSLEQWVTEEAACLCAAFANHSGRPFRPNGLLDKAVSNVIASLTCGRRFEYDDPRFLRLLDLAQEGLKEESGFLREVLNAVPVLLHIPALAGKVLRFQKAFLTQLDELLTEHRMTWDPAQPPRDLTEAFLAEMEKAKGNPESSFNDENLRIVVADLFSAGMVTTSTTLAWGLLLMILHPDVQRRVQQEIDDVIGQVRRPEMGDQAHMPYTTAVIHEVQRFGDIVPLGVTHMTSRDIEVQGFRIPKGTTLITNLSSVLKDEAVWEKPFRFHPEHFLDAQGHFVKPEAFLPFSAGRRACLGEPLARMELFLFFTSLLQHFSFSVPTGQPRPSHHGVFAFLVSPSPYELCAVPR

T1 sequence (Q13639 whole entry): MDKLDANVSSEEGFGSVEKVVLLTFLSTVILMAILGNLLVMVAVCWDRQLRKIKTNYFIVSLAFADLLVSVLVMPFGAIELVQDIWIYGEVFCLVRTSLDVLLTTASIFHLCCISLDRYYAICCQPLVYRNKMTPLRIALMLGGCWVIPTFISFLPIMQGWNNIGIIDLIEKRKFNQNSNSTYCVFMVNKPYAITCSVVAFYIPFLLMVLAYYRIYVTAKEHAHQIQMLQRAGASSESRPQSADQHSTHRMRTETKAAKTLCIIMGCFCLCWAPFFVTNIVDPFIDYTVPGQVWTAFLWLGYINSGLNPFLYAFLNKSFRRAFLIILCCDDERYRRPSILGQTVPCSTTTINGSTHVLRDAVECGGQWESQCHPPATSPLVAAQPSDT

Compound | Potency pEC50 [1] | affinity for the 5-HT4 receptor, fold greater than ATI-7500 [2] | time of MMC return (index of gastric emptying) [3] | modulation of cardiac electrophysiologic parameters [4] | metabolism by esterases in human plasma [5] | prokinetic effects in the dog gut [6] | side effects such as diarrhea, anorexia, or weight loss ([6]; IV and PO doses, dogs) | MMC frequency in the proximal small intestine relative to controls ([6]; PO) | effect on migrating motor complex (MMC) characteristics [6] | antral and small bowel contractility ([6]; fasted dogs) | colonic motor activity ([6]; fasted dogs) | development of retrograde giant migrating contractions ([6]; fasted dogs) | inhibitory activity against CYP450 2D6 [7]
COc1cc(N)c(Cl)cc1C(=O)N[C@@H]1CCN(CCCCCC(=O)O)C[C@@H]1OC [ATI-7500, 6-((3S,4R)-4-(4-amino-5-chloro-2-methoxybenzamido)-3-methoxypiperidin-1-yl)hexanoic acid] | 6.40 |  |  |  |  |  |  |  |  |  |  |  | 
COc1cc(N)c(Cl)cc1C(=O)N[C@@H]1CCN(CCCCCC(=O)O[C@H]2CN3CCC2CC3)C[C@@H]1OC [ATI-7505, 6-[4R-(4-amino-5-chloro-2-methoxy-benzoylamino)-3S-methoxy-piperidin-1-yl]-hexanoic acid 1-aza-bicyclo[2.2.2]oct-3′R-yl ester] | 8.45 | at least 360 fold | significantly shortened the time of MMC return | very weak modulator of cardiac electrophysiologic parameters | rapidly metabolized by esterases in human plasma | caused prokinetic effects | exhibited no side effects | increased MMC frequency | minimal effect | dose-dependent stimulation of antral and small bowel contractility | relatively little effect on colonic motor activity | not associated with the development of retrograde giant migrating contractions | 
COc1cc(N)c(Cl)cc1C(=O)NC1CCN(CCCOc2ccc(F)cc2)CC1OC (stereo not drawn) [Cisapride, reference compound] |  |  |  |  |  | caused prokinetic effects |  |  | minimal effect | dose-dependent stimulation of antral and small bowel contractility | relatively little effect on colonic motor activity |  | significant inhibitory activity
